Laboratory results from ChEMBL document CHEMBL4219157, “Alkylated/aminated nitroimidazoles and nitroimidazole-7-chloroquinoline conjugates: Synthesis and anti-mycobacterial evaluation” (Bioorg Med Chem Lett, 2018).
In brackets after ≈: the same amount, converted by molar mass.

Tests used:
[1] = tested on: Mycobacterium tuberculosis; experiment: Antitubercular activity against Mycobacterium tuberculosis mc2 6230 after 7 days by broth microdilution assay; type: functional; conditions: mc2 6230, 168 h
[2] = tested on: J774; experiment: Cytotoxicity against mouse J774 cells assessed as decrease in cell viability after 24 hrs by resazurin based assay; conditions: J774, 24 h
[3] = Selectivity index, ratio of IC50 for mouse J774 cells to MIC50 for Mycobacterium tuberculosis mc2 6230; type: toxicity; conditions: read-out: Selectivity Index

Row | SMILES | MIC50 [1] [µg/mL] | IC50 [2] [µg/mL] | selectivity ratio [3]
1 | Clc1ccc2c(N3CCNCC3)ccnc2c1 | 92 (≈ 371 µM) | – | –
2 | Cc1ncc([N+](=O)[O-])n1CCCN1CCN(c2ccnc3cc(Cl)ccc23)CC1 | 3.8 (≈ 9.16 µM) | > 100 | > 26.3
3 | Cc1ncc([N+](=O)[O-])n1CCCN1CCCC1 | 19.3 (≈ 81 µM) | > 100 | > 5.2
4 | Cc1ncc([N+](=O)[O-])n1CCCCCN1CCN(c2ccnc3cc(Cl)ccc23)CC1 | 5.2 (≈ 11.7 µM) | 28.9 (≈ 65.2 µM) | 5.6
5 | Cc1ncc([N+](=O)[O-])n1CCCCN1CCCCC1 | 19.3 (≈ 72.5 µM) | > 100 | > 5.2
6 | Cc1ncc([N+](=O)[O-])n1CCCCCN1CCCC1 | 12.3 (≈ 46.2 µM) | > 100 | > 8.1
7 | Cc1ncc([N+](=O)[O-])n1CCCCN1CCCC1 | 12.6 (≈ 49.9 µM) | > 100 | > 8
8 | Cc1ncc([N+](=O)[O-])n1CCCCCN1CCCCC1 | 49 (≈ 175 µM) | > 100 | > 2
9 | Cc1ncc([N+](=O)[O-])n1CCCCCCN1CCN(c2ccnc3cc(Cl)ccc23)CC1 | 1.2 (≈ 2.63 µM) | < 0.8 | < 0.66
10 | Cc1ncc([N+](=O)[O-])n1CCCN1CCCCC1 | > 100 | > 100 | –
11 | Cc1ncc([N+](=O)[O-])n1CCCCN1CCOCC1 | 23.1 (≈ 86.1 µM) | > 100 | > 4.3
12 | Cc1ncc([N+](=O)[O-])n1CCCCCCBr | 4.9 (≈ 16.9 µM) | 69.9 (≈ 241 µM) | 14.1
13 | Cc1ncc([N+](=O)[O-])n1CCCCBr | 17.7 (≈ 67.5 µM) | 61 (≈ 233 µM) | 3.4
14 | Cc1ncc([N+](=O)[O-])n1CCCCCN1CCOCC1 | > 100 | > 100 | –
15 | Cc1ncc([N+](=O)[O-])n1CCCN1CCOCC1 | 18 (≈ 70.8 µM) | > 100 | > 5.5
16 | Cc1ncc([N+](=O)[O-])n1CCCBr | 5.3 (≈ 21.4 µM) | 54.8 (≈ 221 µM) | 10.3
17 | Cc1ncc([N+](=O)[O-])n1CCCCCBr | 13.3 (≈ 48.2 µM) | 83 (≈ 301 µM) | 6.2
18 | Cc1ncc([N+](=O)[O-])n1CCCCN1CCN(c2ccnc3cc(Cl)ccc23)CC1 | 2.2 (≈ 5.13 µM) | > 100 | > 45.3
19 | NNC(=O)c1ccncc1 [ISONIAZID] | 0.019 (≈ 0.139 µM) | – | –
